Measured values as given in patent US5382670A, “Platelet activating factor antagonists” (priority 1993, dated 1995).
Counter-ions that a name gives are not always drawn. Like-named read-outs stand apart in the source and are kept apart here.

Biological target: PAF receptor (Oryctolagus cuniculus, UniProt G1TEI7)
Test: PAF receptor binding assay: inhibition of specific [3H]C18-PAF binding to rabbit platelet membranes
Method in brief: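 Rabbit platelet membranes (10 μg protein) incubated 60 min at 22-23 °C with 0.6 nM [3H]C18-PAF in TME buffer pH 7.0 plus 0.25% BSA; nonspecific binding with 1 μM PAF. Filtered bound radioactivity counted; IC50 by point-to-point evaluation from ≥4 doses in triplicate, Ki by Cheng-Prusoff.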

Chain of PAF receptor (G1TEI7 1-342): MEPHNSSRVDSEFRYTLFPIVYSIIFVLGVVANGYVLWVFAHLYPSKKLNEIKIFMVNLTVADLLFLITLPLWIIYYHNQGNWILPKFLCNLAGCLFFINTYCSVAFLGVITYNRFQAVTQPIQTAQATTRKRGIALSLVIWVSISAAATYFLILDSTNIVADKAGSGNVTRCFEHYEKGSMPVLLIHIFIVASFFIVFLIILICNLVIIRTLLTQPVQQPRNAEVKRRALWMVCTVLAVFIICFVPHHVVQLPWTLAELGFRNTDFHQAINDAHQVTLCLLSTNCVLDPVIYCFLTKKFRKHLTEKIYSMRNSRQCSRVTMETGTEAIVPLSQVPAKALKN

Question: `NC(=O)CCn1cc(C(=O)C2CSC(c3cccnc3)N2)c2ccccc21` (stereo not drawn) [Example 121] was tested. Which Ki (read-out: Ki (PAF Receptor Binding Activity), 0.6 nM [3H]C18-PAF, 60 min, 22-23 °C, Ki from IC50 (Cheng and Prusoff)) did it give?
Answer: 6 nM

Question: With `COC(=O)c1ccc2c(C(=O)C3CSC(c4cccnc4)N3)c[nH]c2c1` (stereo not drawn) [Example 122, 3-[2-(3-pyridinyl)thiazolid-4-oyl]-6-carbomethoxyindole] as the molecule, how does the Ki (Ki (PAF Receptor Binding Activity), 0.6 nM [3H]C18-PAF, 60 min, 22-23 °C, Ki from IC50 (Cheng and Prusoff)) read?
Answer: 400 nM

Question: Which Ki (0.6 nM [3H]C18-PAF, 60 min, 22-23 °C, Ki from IC50 (Cheng and Prusoff), read-out: Ki (PAF Receptor Binding Activity)) does the source give for `CN(C)C(=O)n1cc(C(=O)C2CSC(c3cccnc3)N2)c2ccc(OCc3ccccc3)cc21` (stereo not drawn) [Example 123, 1-dimethylcarbamoyl-3-[2-(3-pyridinyl)thiazolid-4-oyl]-6-phenylmethoxyindole oxalate] here?
Answer: 2 nM
